Experimental data: US20240208992A1, “MACROCYCLES AS CFTR MODULATORS” (Idorsia Pharmaceuticals Ltd, priority 2021, published 2024)
pEC50: −log10 of the molar value.

Molecular target: human F508del-CFTR (Homo sapiens, UniProt P13569, DEL508-508)
Assay: F508del-CFTR cell surface expression (corrector activity), DiscoveRx ß-galactosidase complementation chemiluminescence assay in recombinant U2OS cell line;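 also: U2OS cells co-expressing ProLink-tagged F508del-CFTR and a membrane-anchored enzyme acceptor, where more surface CFTR restores β-galactosidase activity measured by chemiluminescence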
Settings: U2OS cells, 16h compound incubation; for pEC50: EC50, F508del-CFTR cell surface expression, geomean of several measurements; for Emax: U2OS, in relation to the Emax of the corrector lumacaftor (=100%), arithmetic mean

Sequence of human F508del-CFTR (P13569 with tags, fused parts or gaps DEL508-508): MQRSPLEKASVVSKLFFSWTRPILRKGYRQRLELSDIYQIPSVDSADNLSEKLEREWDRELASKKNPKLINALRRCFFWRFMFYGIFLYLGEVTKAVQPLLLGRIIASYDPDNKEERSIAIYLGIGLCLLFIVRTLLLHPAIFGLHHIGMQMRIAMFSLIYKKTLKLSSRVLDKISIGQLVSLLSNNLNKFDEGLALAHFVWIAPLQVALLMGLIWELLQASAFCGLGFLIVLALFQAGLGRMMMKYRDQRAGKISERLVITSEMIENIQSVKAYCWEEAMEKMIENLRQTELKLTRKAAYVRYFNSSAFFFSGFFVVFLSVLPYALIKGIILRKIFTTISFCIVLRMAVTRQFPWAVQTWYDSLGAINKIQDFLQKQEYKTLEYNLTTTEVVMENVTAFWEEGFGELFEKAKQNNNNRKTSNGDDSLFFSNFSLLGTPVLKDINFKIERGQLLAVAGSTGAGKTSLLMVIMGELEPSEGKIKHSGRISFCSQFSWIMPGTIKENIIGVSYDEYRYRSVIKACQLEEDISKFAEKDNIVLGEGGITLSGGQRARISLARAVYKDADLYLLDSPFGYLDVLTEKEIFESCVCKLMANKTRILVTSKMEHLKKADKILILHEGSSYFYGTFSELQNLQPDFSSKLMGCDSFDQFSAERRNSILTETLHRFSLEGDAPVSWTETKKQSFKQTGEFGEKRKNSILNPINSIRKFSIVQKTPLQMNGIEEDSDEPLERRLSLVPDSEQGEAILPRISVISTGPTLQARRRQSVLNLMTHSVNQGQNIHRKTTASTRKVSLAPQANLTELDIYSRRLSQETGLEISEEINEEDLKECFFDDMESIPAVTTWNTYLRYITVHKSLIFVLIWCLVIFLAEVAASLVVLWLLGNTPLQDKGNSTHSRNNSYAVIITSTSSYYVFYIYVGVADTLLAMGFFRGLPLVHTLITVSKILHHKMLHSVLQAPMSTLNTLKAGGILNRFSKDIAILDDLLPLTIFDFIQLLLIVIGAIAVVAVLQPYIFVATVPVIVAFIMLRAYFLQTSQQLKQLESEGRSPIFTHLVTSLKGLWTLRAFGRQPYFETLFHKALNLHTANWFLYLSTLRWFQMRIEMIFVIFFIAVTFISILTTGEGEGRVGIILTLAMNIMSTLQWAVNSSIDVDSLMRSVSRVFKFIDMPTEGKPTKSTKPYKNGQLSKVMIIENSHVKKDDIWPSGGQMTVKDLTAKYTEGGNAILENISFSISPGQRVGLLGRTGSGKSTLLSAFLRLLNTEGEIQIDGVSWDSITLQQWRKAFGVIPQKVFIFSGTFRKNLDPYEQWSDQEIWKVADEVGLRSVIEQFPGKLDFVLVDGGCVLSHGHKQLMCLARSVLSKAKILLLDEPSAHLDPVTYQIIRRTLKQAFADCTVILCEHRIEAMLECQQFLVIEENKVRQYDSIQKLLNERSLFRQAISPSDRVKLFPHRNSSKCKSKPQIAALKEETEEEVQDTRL

| Compound | pEC50 | Emax [%] |
| --- | --- | --- |
| COCCc1ccc(-c2noc(C[C@@H]3C(=O)N[C@H](Cc4ccccc4)COc4ccnc(OC)c4C(=O)N[C@H](C(=O)NCCc4noc(C5CC5)n4)CC(=O)N(C)[C@@H](CC(C)C)C(=O)N3C)n2)cc1 [Example 867, (3R,6R,9S,13S)-3-benzyl-N-(2-(5-cyclopropyl-1,2,4-oxadiazol-3-yl)ethyl)-9-isobutyl-16-methoxy-6-((3-(4-(2-methoxyethyl)phenyl)-1,2,4-oxadiazol-5-yl)methyl)-7,10-dimethyl-5,8,11,15-tetraoxo-2,3,4,5,6,7,8,9,10,11,12,13,14,15-tetradecahydropyrido[3,4-p][1]oxa[4,7,10,14]tetraazacycloheptadecine-13-carboxamide] | 7.51 | 413 |
| COCCc1ccc(-c2noc(C[C@@H]3C(=O)N[C@H](Cc4ccccc4)COc4ccnc(OC)c4C(=O)N[C@H](C(=O)NCCc4cc(OC)no4)CC(=O)N(C)[C@@H](CC(C)C)C(=O)N3C)n2)cc1 [Example 868, (3R,6R,9S,13S)-3-benzyl-9-isobutyl-16-methoxy-6-((3-(4-(2-methoxyethyl)phenyl)-1,2,4-oxadiazol-5-yl)methyl)-N-(2-(3-methoxyisoxazol-5-yl)ethyl)-7,10-dimethyl-5,8,11,15-tetraoxo-2,3,4,5,6,7,8,9,10,11,12,13,14,15-tetradecahydropyrido[3,4-p][1]oxa[4,7,10,14]tetraazacycloheptadecine-13-carboxamide] | 7.74 | 397 |
| COc1cc2c(c(OC)n1)C(=O)N[C@H](C(=O)NCCc1cc(C)no1)CC(=O)N(C)[C@@H](CC(C)C)C(=O)N1CCCC[C@@H]1C(=O)N[C@H](Cc1ccccc1)CO2 [Example 869, (7S,11S,17aR,20R)-20-benzyl-11-isobutyl-2,4-dimethoxy-10-methyl-N-(2-(3-methylisoxazol-5-yl)ethyl)-5,9,12,18-tetraoxo-5,6,7,8,9,10,11,12,15,16,17,17a,18,19,20,21-hexadecahydro-14H-dipyrido[2,1-f:3′,4′-p][1]oxa[4,7,10,14]tetraazacycloheptadecine-7-carboxamide] | 6.45 | 305 |
| COc1cc2c(c(OC)n1)C(=O)N[C@H](C(=O)NCCc1cc(C3CC3)no1)CC(=O)N(C)[C@@H](CC(C)C)C(=O)N1CCCC[C@@H]1C(=O)N[C@H](Cc1ccccc1)CO2 [Example 870, (7S,11S,17aR,20R)-20-benzyl-N-(2-(3-cyclopropylisoxazol-5-yl)ethyl)-11-isobutyl-2,4-dimethoxy-10-methyl-5,9,12,18-tetraoxo-5,6,7,8,9,10,11,12,15,16,17,17a,18,19,20,21-hexadecahydro-14H-dipyrido[2,1-f:3′,4′-p][1]oxa[4,7,10,14]tetraazacycloheptadecine-7-carboxamide] | 6.70 | 316 |
| COCCc1ccc(-c2noc(C[C@@H]3C(=O)N[C@H](Cc4ccccc4)COc4ccnc(OC)c4C(=O)N[C@H](C(=O)NCCn4ncc(C5CC5)n4)CC(=O)N(C)[C@@H](CC(C)C)C(=O)N3C)n2)cc1 [Example 871, (3R,6R,9S,13S)-3-benzyl-N-(2-(4-cyclopropyl-2H-1,2,3-triazol-2-yl)ethyl)-9-isobutyl-16-methoxy-6-((3-(4-(2-methoxyethyl)phenyl)-1,2,4-oxadiazol-5-yl)methyl)-7,10-dimethyl-5,8,11,15-tetraoxo-2,3,4,5,6,7,8,9,10,11,12,13,14,15-tetradecahydropyrido[3,4-p][1]oxa[4,7,10,14]tetraazacycloheptadecine-13-carboxamide] | 7.49 | 378 |
| COc1noc(CCNC(=O)[C@@H]2CC(=O)N(C)[C@@H](CC(C)C)C(=O)N(C)C3(CC3)C(=O)N[C@H](Cc3ccccc3)COc3cnc4ccccc4c3C(=O)N2)n1 [Example 872, (3′S,7′S,13′R)-13′-benzyl-7′-isobutyl-N-(2-(3-methoxy-1,2,4-oxadiazol-5-yl)ethyl)-6′,9′-dimethyl-1′,5′,8′,11′-tetraoxo-2′,3′,4′,5′,6′,7′,8′,9′,11′,12′,13′,14′-dodecahydro-1′H-spiro[cyclopropane-1,10′-[1]oxa[4,7,10,14]tetraazacycloheptadecino[17,16-c]quinoline]-3′-carboxamide] | 6.27 | 318 |
